From ChEMBL document CHEMBL4507320, “Data for DCP probe NVS-MALT1” (2021)

Tests used:
[1] = biological target: Serine/threonine-protein kinase N1 (Homo sapiens) (UniProt Q16512); conditions: Compound concentration 1000.0 nM
[2] = tested on: Mast/stem cell growth factor receptor Kit (Homo sapiens), P10721 [A829P]; conditions: Compound concentration 1000.0 nM
[3] = biological target: 5-hydroxytryptamine receptor 2A (Homo sapiens) (UniProt P28223); conditions: Compound concentration 10.0 uM
[4] = biological target: 1-phosphatidylinositol 3-phosphate 5-kinase (Homo sapiens) (UniProt Q9Y2I7); conditions: Compound concentration 1000.0 nM
[5] = biological target: Mitogen-activated protein kinase 8 (Homo sapiens) (UniProt P45983); conditions: Compound concentration 1000.0 nM
[6] = biological target: Sodium-dependent serotonin transporter (Homo sapiens) (UniProt P31645); conditions: Compound concentration 10.0 uM
[7] = biological target: Phosphatidylinositol 5-phosphate 4-kinase type-2 beta (Homo sapiens) (UniProt P78356); conditions: Compound concentration 1000.0 nM
[8] = tested on: Tyrosine-protein kinase ABL1 (Homo sapiens), P00519 [T315I]; conditions: Compound concentration 1000.0 nM
[9] = biological target: Receptor tyrosine-protein kinase erbB-3 (Homo sapiens) (UniProt P21860); conditions: Compound concentration 1000.0 nM
[10] = biological target: Mitogen-activated protein kinase kinase kinase 12 (Homo sapiens) (UniProt Q12852); conditions: Compound concentration 1000.0 nM
[11] = biological target: Serine/threonine-protein kinase WNK2 (Homo sapiens) (UniProt Q9Y3S1); conditions: Compound concentration 1000.0 nM
[12] = biological target: Calcium/calmodulin-dependent protein kinase kinase 2 (Homo sapiens) (UniProt Q96RR4); conditions: Compound concentration 1000.0 nM
Calcium/calmodulin-dependent protein kinase kinase 2 (Homo sapiens), sequence (Q96RR4 2-588 limits assumed): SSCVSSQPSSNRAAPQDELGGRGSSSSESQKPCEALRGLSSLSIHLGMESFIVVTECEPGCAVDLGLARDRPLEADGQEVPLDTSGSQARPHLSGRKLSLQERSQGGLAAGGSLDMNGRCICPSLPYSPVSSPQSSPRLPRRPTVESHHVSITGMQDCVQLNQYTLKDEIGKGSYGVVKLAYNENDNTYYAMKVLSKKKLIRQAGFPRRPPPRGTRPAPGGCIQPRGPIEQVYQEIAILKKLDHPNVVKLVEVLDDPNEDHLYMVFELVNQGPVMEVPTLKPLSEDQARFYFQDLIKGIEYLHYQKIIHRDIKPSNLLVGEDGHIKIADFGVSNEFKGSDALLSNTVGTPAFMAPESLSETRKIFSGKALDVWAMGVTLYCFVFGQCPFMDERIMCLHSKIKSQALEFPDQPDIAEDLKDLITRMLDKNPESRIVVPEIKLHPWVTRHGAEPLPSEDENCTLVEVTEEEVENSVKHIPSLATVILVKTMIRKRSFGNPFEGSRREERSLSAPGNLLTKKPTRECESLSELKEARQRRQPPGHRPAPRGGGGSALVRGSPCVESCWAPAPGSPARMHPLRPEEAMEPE

[13] = biological target: Vascular endothelial growth factor receptor 2 (Homo sapiens) (UniProt P35968); conditions: Compound concentration 1000.0 nM
[14] = biological target: Serine/threonine-protein kinase PAK 4 (Homo sapiens) (UniProt O96013); conditions: Compound concentration 1000.0 nM
[15] = biological target: Serine/threonine-protein kinase 17A (Homo sapiens) (UniProt Q9UEE5); conditions: Compound concentration 1000.0 nM
Serine/threonine-protein kinase 17A (Homo sapiens), sequence (Q9UEE5 whole entry): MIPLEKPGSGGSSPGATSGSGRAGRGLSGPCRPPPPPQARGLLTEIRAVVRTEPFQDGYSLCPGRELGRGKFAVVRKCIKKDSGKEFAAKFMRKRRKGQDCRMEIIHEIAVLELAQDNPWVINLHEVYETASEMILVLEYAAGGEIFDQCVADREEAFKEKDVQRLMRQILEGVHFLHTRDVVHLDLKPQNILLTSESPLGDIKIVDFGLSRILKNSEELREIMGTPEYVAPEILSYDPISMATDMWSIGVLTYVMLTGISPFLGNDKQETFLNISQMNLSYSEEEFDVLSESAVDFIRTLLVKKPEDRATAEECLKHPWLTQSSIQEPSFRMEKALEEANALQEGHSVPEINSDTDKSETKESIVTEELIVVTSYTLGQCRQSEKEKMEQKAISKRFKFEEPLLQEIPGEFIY

[16] = biological target: Tyrosine-protein kinase CSK (Homo sapiens) (UniProt P41240); conditions: Compound concentration 1000.0 nM
[17] = biological target: Proto-oncogene tyrosine-protein kinase ROS (Homo sapiens) (UniProt P08922); conditions: Compound concentration 1000.0 nM
[18] = biological target: Alpha-2C adrenergic receptor (Homo sapiens) (UniProt P18825); conditions: Compound concentration 10.0 uM
[19] = tested on: Tyrosine-protein kinase ABL1 (Homo sapiens), P00519 [Y253F]; conditions: Compound concentration 1000.0 nM
[20] = tested on: Phosphatidylinositol 4,5-bisphosphate 3-kinase catalytic subunit alpha isoform (Homo sapiens), P42336 [E545A]; conditions: Compound concentration 1000.0 nM
[21] = biological target: Transient receptor potential cation channel subfamily M member 6 (Homo sapiens) (UniProt Q9BX84); conditions: Compound concentration 1000.0 nM
[22] = biological target: Receptor-interacting serine/threonine-protein kinase 1 (Homo sapiens) (UniProt Q13546); conditions: Compound concentration 1000.0 nM
[23] = tested on: Mast/stem cell growth factor receptor Kit (Homo sapiens), P10721 [V559D,V654A]; conditions: Compound concentration 1000.0 nM
[24] = biological target: BMP-2-inducible protein kinase (Homo sapiens) (UniProt Q9NSY1); conditions: Compound concentration 1000.0 nM
[25] = biological target: Wee1-like protein kinase (Homo sapiens) (UniProt P30291); conditions: Compound concentration 1000.0 nM
[26] = biological target: Sigma intracellular receptor 2 (Homo sapiens, UniProt Q5BJF2); conditions: Compound concentration 10.0 uM
[27] = biological target: Calcium/calmodulin-dependent protein kinase type II subunit alpha (Homo sapiens) (UniProt Q9UQM7); conditions: Compound concentration 1000.0 nM
[28] = biological target: Leukocyte tyrosine kinase receptor (Homo sapiens) (UniProt P29376); conditions: Compound concentration 1000.0 nM
[29] = biological target: Serine/threonine-protein kinase 26 (Homo sapiens) (UniProt Q9P289); conditions: Compound concentration 1000.0 nM
Serine/threonine-protein kinase 26 (Homo sapiens), sequence (Q9P289 2-416 limits assumed): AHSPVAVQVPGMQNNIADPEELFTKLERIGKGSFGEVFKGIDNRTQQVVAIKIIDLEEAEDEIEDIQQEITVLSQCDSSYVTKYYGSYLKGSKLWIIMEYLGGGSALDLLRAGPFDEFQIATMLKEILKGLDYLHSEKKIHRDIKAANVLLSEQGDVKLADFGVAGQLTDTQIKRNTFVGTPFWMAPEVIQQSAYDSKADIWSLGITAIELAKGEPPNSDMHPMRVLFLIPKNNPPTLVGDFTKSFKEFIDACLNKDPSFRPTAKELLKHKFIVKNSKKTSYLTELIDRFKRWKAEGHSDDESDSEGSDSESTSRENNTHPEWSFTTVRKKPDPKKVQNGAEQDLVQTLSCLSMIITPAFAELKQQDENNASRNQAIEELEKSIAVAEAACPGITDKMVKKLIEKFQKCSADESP

[30] = biological target: Mitogen-activated protein kinase kinase kinase 5 (Homo sapiens) (UniProt Q99683); conditions: Compound concentration 1000.0 nM
[31] = biological target: Homeodomain-interacting protein kinase 2 (Homo sapiens) (UniProt Q9H2X6); conditions: Compound concentration 1000.0 nM
[32] = biological target: Vascular endothelial growth factor receptor 3 (Homo sapiens) (UniProt P35916); conditions: Compound concentration 1000.0 nM
Vascular endothelial growth factor receptor 3 (Homo sapiens), sequence (P35916 whole entry): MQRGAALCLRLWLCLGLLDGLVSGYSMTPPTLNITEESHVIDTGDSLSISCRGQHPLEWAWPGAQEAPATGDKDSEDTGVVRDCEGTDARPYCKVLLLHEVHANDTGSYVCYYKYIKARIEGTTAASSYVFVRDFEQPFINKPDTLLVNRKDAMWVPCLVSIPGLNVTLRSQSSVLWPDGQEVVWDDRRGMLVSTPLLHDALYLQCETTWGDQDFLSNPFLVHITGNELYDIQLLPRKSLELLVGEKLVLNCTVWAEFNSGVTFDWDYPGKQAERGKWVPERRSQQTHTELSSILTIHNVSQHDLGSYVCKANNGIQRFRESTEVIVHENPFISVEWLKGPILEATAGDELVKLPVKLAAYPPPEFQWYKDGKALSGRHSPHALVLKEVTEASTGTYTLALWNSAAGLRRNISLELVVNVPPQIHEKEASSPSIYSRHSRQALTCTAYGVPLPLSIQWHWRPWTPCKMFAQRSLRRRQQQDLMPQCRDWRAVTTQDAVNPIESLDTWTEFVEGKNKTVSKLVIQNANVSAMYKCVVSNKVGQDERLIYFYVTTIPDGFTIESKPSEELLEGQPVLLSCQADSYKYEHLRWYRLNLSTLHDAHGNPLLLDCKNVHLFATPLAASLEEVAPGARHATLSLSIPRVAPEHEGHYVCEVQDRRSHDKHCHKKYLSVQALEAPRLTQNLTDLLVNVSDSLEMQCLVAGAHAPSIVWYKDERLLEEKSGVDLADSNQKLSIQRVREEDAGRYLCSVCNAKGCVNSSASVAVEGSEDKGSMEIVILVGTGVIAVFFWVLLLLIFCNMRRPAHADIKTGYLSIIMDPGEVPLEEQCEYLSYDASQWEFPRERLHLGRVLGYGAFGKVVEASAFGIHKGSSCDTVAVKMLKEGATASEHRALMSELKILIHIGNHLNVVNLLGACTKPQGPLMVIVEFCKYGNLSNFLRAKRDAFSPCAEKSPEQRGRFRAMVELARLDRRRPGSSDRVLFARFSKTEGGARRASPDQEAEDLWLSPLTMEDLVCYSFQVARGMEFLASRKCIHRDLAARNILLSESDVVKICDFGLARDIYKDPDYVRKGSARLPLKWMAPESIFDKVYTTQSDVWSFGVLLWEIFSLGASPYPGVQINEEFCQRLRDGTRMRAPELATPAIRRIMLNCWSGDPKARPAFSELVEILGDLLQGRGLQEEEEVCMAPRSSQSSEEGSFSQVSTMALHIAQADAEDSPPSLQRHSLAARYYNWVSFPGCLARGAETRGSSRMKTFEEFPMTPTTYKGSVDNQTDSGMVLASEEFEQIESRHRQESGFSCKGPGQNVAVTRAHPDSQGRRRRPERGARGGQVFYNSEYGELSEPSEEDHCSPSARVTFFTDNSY

[33] = biological target: Tyrosine-protein kinase Srms (Homo sapiens) (UniProt Q9H3Y6); conditions: Compound concentration 1000.0 nM
[34] = biological target: Myotonin-protein kinase (Homo sapiens) (UniProt Q09013); conditions: Compound concentration 1000.0 nM
[35] = biological target: Proto-oncogene tyrosine-protein kinase receptor Ret (Homo sapiens) (UniProt P07949); conditions: Compound concentration 1000.0 nM
[36] = biological target: Casein kinase I isoform epsilon (Homo sapiens) (UniProt P49674); conditions: Compound concentration 1000.0 nM
[37] = biological target: Beta-3 adrenergic receptor (Homo sapiens) (UniProt P13945); conditions: Compound concentration 10.0 uM
Beta-3 adrenergic receptor (Homo sapiens), sequence (P13945 whole entry, looked up): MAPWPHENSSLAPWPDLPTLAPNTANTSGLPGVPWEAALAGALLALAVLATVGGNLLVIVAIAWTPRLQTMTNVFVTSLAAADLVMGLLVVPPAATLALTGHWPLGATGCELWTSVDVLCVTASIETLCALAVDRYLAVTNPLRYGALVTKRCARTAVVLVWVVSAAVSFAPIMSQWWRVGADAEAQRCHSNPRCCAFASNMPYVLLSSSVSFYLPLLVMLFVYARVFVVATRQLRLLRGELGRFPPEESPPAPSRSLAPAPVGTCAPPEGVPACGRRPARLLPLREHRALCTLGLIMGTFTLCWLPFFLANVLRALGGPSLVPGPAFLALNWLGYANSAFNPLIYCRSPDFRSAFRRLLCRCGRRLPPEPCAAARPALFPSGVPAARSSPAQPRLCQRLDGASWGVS

[38] = biological target: Tyrosine-protein kinase receptor Tie-1 (Homo sapiens) (UniProt P35590); conditions: Compound concentration 1000.0 nM
[39] = biological target: Mitogen-activated protein kinase kinase kinase 9 (Homo sapiens) (UniProt P80192); conditions: Compound concentration 1000.0 nM
[40] = tested on: Tyrosine-protein kinase ABL1 (Homo sapiens), P00519 [Q252H]; conditions: Compound concentration 1000.0 nM
[41] = biological target: Myosin light chain kinase, smooth muscle (Homo sapiens) (UniProt Q15746); conditions: Compound concentration 1000.0 nM
Myosin light chain kinase, smooth muscle (Homo sapiens), sequence (Q15746 whole entry): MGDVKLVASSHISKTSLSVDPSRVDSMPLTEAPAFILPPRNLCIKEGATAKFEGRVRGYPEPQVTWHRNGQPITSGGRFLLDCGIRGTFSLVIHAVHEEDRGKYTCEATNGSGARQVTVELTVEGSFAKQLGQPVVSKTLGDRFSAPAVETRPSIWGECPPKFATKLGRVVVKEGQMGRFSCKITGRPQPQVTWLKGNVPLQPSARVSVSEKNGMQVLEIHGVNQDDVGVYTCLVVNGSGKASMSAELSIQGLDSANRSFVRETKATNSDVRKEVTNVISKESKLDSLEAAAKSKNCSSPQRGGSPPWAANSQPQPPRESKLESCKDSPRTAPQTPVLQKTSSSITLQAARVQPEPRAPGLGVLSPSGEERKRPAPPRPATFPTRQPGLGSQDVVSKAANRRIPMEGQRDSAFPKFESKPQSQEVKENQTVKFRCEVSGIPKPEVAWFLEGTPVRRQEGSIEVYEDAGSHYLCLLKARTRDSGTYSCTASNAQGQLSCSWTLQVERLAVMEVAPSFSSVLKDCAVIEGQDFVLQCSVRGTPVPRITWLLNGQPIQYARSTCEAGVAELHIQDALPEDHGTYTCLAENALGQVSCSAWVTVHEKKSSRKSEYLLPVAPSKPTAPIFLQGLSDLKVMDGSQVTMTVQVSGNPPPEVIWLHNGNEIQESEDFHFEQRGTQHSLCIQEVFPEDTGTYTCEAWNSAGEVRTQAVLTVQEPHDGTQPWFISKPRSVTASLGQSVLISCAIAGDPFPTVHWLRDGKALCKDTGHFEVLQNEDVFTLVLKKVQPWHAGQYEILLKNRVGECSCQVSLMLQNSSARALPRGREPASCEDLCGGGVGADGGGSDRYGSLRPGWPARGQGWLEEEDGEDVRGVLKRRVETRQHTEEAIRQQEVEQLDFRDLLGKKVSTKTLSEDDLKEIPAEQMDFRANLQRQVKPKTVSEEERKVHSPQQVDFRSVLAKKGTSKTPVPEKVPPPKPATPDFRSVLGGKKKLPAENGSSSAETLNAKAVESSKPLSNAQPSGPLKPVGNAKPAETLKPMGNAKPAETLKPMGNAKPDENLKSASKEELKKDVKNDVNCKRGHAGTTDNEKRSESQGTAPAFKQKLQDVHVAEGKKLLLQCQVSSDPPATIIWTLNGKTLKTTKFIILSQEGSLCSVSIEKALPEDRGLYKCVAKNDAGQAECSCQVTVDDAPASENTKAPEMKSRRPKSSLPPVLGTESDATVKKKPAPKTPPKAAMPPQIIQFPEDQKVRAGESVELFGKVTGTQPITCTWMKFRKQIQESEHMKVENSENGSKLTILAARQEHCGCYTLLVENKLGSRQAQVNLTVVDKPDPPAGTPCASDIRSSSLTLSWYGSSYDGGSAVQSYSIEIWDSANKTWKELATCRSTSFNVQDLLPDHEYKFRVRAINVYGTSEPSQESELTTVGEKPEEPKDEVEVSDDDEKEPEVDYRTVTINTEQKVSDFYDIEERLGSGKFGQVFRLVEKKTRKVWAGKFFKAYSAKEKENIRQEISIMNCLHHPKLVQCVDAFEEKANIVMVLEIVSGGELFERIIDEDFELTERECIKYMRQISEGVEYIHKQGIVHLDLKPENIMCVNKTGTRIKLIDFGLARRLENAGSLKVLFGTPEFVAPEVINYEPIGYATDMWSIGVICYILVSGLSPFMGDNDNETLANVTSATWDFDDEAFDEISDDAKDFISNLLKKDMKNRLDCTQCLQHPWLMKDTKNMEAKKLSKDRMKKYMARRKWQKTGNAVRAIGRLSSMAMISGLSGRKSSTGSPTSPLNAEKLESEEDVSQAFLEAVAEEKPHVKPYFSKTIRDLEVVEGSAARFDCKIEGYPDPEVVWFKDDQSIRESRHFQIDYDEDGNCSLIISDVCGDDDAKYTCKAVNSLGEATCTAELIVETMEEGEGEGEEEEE

[42] = biological target: Bone morphogenetic protein receptor type-1A (Homo sapiens) (UniProt P36894); conditions: Compound concentration 1000.0 nM
[43] = biological target: Phosphatidylinositol 3-kinase C2 domain-containing subunit gamma (Homo sapiens) (UniProt O75747); conditions: Compound concentration 1000.0 nM
[44] = biological target: Serine/threonine-protein kinase PLK1 (Homo sapiens) (UniProt P53350); conditions: Compound concentration 1000.0 nM
[45] = biological target: Tyrosine-protein kinase Fes/Fps (Homo sapiens) (UniProt P07332); conditions: Compound concentration 1000.0 nM

CO[C@@H](C)c1c(Nc2ccc([C@H](N(C)C(=O)C3CCS(=O)(=O)CC3)C(F)(F)F)cc2)cnc2cc(Cl)nn12 [NVS-MALT1]
inactive: residual activity [1] 100% | residual activity [2] 100% | inhibition [3] 2.45% | residual activity [4] 54% | residual activity [5] 86% | inhibition [6] 11.3% | residual activity [7] 100% | residual activity [8] 87% | residual activity [9] 100% | residual activity [10] 100% | residual activity [11] 98% | residual activity [12] 80% | residual activity [13] 100% | residual activity [14] 95% | residual activity [15] 87% | residual activity [16] 100% | residual activity [17] 77% | inhibition [18] 4.48% | residual activity [19] 100% | residual activity [20] 65% | residual activity [21] 100% | residual activity [22] 91% | residual activity [23] 92% | residual activity [24] 89% | residual activity [25] 88% | inhibition [26] 49.1% | residual activity [27] 83% | residual activity [28] 98% | residual activity [29] 100% | residual activity [30] 84% | residual activity [31] 100% | residual activity [32] 89% | residual activity [33] 95% | residual activity [34] 84% | residual activity [35] 91% | residual activity [36] 66% | inhibition [37] 15.4% | residual activity [38] 92% | residual activity [39] 100% | residual activity [40] 100% | residual activity [41] 95% | residual activity [42] 71% | residual activity [43] 88% | residual activity [44] 77% | residual activity [45] 100%

CO[C@@H](C)c1c(Nc2ccc([C@@H](N(C)C(=O)C3CCS(=O)(=O)CC3)C(F)(F)F)cc2)cnc2cc(Cl)nn12 [NVS-MALT1-C]
inactive: residual activity [1] 99% | residual activity [2] 100% | inhibition [3] 4.93% | residual activity [4] 65% | residual activity [5] 69% | inhibition [6] 14.6% | residual activity [7] 100% | residual activity [8] 78% | residual activity [9] 100% | residual activity [10] 100% | residual activity [11] 100% | residual activity [12] 100% | residual activity [13] 95% | residual activity [14] 100% | residual activity [15] 90% | residual activity [16] 100% | residual activity [17] 82% | inhibition [18] 1.97% | residual activity [19] 100% | residual activity [20] 77% | residual activity [21] 100% | residual activity [22] 84% | residual activity [23] 88% | residual activity [24] 91% | residual activity [25] 92% | residual activity [27] 83% | residual activity [28] 95% | residual activity [29] 100% | residual activity [30] 81% | residual activity [31] 100% | residual activity [32] 84% | residual activity [33] 100% | residual activity [34] 91% | residual activity [35] 91% | residual activity [36] 59% | inhibition [37] 12.9% | residual activity [38] 96% | residual activity [39] 81% | residual activity [40] 100% | residual activity [41] 98% | residual activity [42] 100% | residual activity [43] 88% | residual activity [44] 87% | residual activity [45] 100%
active: inhibition [26] 57.1%
